By MIC is commonly meant the lowest concentration found to suppress growth.

The results in this text go back to DBAASP.

Test systems include Escherichia coli BL21; Pseudomonas syringae; Bacillus subtilis 168; Escherichia coli B; Pseudomonas aeruginosa; Staphylococcus aureus 1; Staphylococcus aureus; Escherichia coli K-12; Klebsiella pneumoniae; Acinetobacter baumannii; Candida albicans; Candida glabrata; Candida tropicalis.
Assay in all cases: ≥ marks a high value that may be exact or a test limit, other limits are often not marked, values filed in µg/mL are converted to µM
Assay [1] relates to Streptococcus mutans UA159.
For assay [2], the system named is Streptococcus sanguinis ATCC 10556.
Assay [3] deals with Streptococcus sobrinus ATCC 6715.
The subject of assay [4] is Streptococcus pyogenes GAS M1T1.
The test system of assay [5] is Xanthomonas axonopodis pv. phaseoli ATCC 9563.
Assay [6] has as its system Candida albicans F7-39/IDE99.
The test system of assay [7] is Micrococcus luteus CCM 144.
Assay [8] has as its system Pseudomonas aeruginosa ATCC 27853.
Assay [9] concerns Staphylococcus aureus ATCC 43300.
Assay [10] relates to Staphylococcus epidermidis.
The test system of assay [11] is Candida albicans NCPF 1467.
Assay [12] concerns Escherichia coli NCTC 10418.
The test system of assay [13] is Staphylococcus aureus ATCC 12493.
The test system of assay [14] is Staphylococcus aureus NCTC 10788.
The test system of assay [15] is Pseudomonas aeruginosa PAO1.
Assay [16] relates to Staphylococcus aureus NCTC 8325-4.
Assay [17] concerns Bacillus subtilis ATCC 6633.
In assay [18] the test system is Klebsiella pneumoniae ATCC 27736.
The test system of assay [19] is Pseudomonas aeruginosa ATCC 10662.
The test system of assay [20] is Pseudomonas aeruginosa ATCC BAA-427.
Assay [21] relates to Staphylococcus epidermidis ATCC 1435.
The test system of assay [22] is Staphylococcus aureus ATCC 25923.

≈ marks a conversion by molar mass, not a printed value.

For the compound `NCCCC[C@H](NC(=O)CNC(=O)[C@H](Cc1ccccc1)NC(=O)[C@H](CCCCN)NC(=O)[C@H](Cc1ccccc1)NC(=O)[C@H](Cc1ccccc1)NC(=O)[C@H](CCCCN)NC(=O)[C@H](CCCCN)NC(=O)[C@H](Cc1ccccc1)NC(=O)[C@H](Cc1ccccc1)NC(=O)[C@H](CCCCN)NC(=O)CNC(=O)[C@@H](N)Cc1c[nH]c2ccccc12)C(=O)O` [WGKFFKKFFKFGK], the MIC in assay [1], in [2] and in assay [3] was 18.9 µM (≈ 32 µg/mL) in each case.

With `CC[C@H](C)[C@H](NC(=O)[C@H](CCCCN)NC(=O)[C@H](CC(N)=O)NC(=O)[C@H](CCCCN)NC(=O)[C@H](CC(C)C)NC(=O)[C@H](Cc1ccc(O)cc1)NC(=O)[C@H](CCC(N)=O)NC(=O)[C@H](CCCN=C(N)N)NC(=O)[C@@H](NC(=O)[C@@H](NC(=O)[C@H](CCC(=O)O)NC(=O)[C@H](CCCCN)NC(=O)[C@H](Cc1c[nH]c2ccccc12)NC(=O)[C@H](C)N)[C@@H](C)O)[C@@H](C)CC)C(=O)N[C@@H](CCCCN)C(=O)N[C@@H](CCCCN)C(=O)N[C@@H](CCCCN)C(=O)N[C@@H](Cc1c[nH]c2ccccc12)C(=O)N[C@@H](CCCN=C(N)N)C(=O)N[C@@H](CCCCN)C(=O)N[C@@H](C)C(=O)N[C@H](C(=O)N[C@H](C(=O)N[C@@H](C)C(=O)N[C@@H](Cc1c[nH]c2ccccc12)C(=O)O)[C@@H](C)CC)C(C)C` [AWKETIRQYLKNKIKKKWRKAVIAW], the MIC was determined as 2 µM (≈ 6.37 µg/mL) against Escherichia coli BL21, 8 µM (≈ 25.5 µg/mL) in the assay with Pseudomonas syringae, 10 µM (≈ 31.9 µg/mL) in assay [4] and 1 µM (≈ 3.19 µg/mL) in assay [5].

Take `CC[C@H](C)[C@H](NC(=O)CN)C(=O)N[C@@H](CCSC)C(=O)N[C@@H](CO)C(=O)N[C@@H](CO)C(=O)N[C@@H](CC(C)C)C(=O)N[C@@H](CCSC)C(=O)N[C@@H](CCCCN)C(=O)N[C@@H](CCCCN)C(=O)N[C@@H](CC(C)C)C(=O)N[C@@H](C)C(=O)N[C@@H](CCCCN)C(=O)N[C@H](C(=O)N[C@H](C(=O)N[C@@H](C)C(=O)N[C@@H](CCCCN)C(N)=O)[C@@H](C)CC)[C@@H](C)CC` [GIMSSLMKKLAKIIAK]: the MIC in the assay with Bacillus subtilis 168 stood at 7 µM (≈ 12.1 µg/mL); in assay [6], 11 µM (≈ 19 µg/mL); in the assay on Escherichia coli B, 3.7 µM (≈ 6.41 µg/mL); in assay [7] it was 3 µM (≈ 5.19 µg/mL); in [8] it was 4.5 µM (≈ 7.79 µg/mL); against Pseudomonas aeruginosa, 9.3 µM (≈ 16.1 µg/mL). Moreover, the MIC in the assay on Staphylococcus aureus 1 is 5.2 µM (≈ 9 µg/mL); in assay [9], 9 µM (≈ 15.6 µg/mL); against Staphylococcus aureus it was 10 µM (≈ 17.3 µg/mL); in assay [10], 5 µM (≈ 8.66 µg/mL).

`CC(C)C[C@H](NC(=O)[C@H](CC(C)C)NC(=O)[C@H](CCCCN)NC(=O)[C@@H]1CCCN1C(=O)[C@H](CC(C)C)NC(=O)[C@@H](N)Cc1ccccc1)C(=O)N[C@@H](C)C(=O)NCC(=O)N[C@@H](CC(C)C)C(=O)N1CCC[C@H]1C(=O)N[C@@H](CO)C(=O)N[C@@H](Cc1ccccc1)C(=O)N[C@@H](CC(C)C)C(=O)N[C@H]1CSSC[C@@H](C(=O)O)NC(=O)[C@H](CCCCN)NC(=O)[C@H](CCCCN)NC(=O)[C@H](Cc2ccccc2)NC(=O)[C@H](C(C)C)NC(=O)[C@H](CC(C)C)NC1=O` [FLPKLLAGLPSFLCLVFKKC]: the MIC in assay [11] came out at 8 µM (≈ 17.9 µg/mL); in [12], 16 µM (≈ 35.8 µg/mL); in assay [13] it was 8 µM (≈ 17.9 µg/mL); in [14], 16 µM (≈ 35.8 µg/mL).

For the compound `NCCCC[C@H](NC(=O)[C@H](CCCCN)NC(=O)[C@H](Cc1c[nH]c2ccccc12)NC(=O)[C@H](Cc1c[nH]c2ccccc12)NC(=O)[C@H](CCCCN)NC(=O)[C@H](CCCCN)NC(=O)[C@@H](N)Cc1c[nH]c2ccccc12)C(=O)N[C@@H](Cc1c[nH]c2ccccc12)C(N)=O` [WKKWWKKW], the MIC in the assay with Escherichia coli K-12 was 31.3 µM (≈ 39.9 µg/mL); against Klebsiella pneumoniae, 250 µM (≈ 319 µg/mL); in assay [15], over 250 µM; in [16], at least 62.5 µM.

As for `CC[C@H](C)[C@H](NC(=O)[C@H](Cc1cnc[nH]1)NC(=O)[C@H](Cc1cnc[nH]1)NC(=O)[C@H](Cc1ccccc1)NC(=O)[C@@H](N)Cc1ccccc1)C(=O)N[C@@H](Cc1ccccc1)C(=O)N[C@@H](CCCN=C(N)N)C(=O)NCC(=O)N[C@@H](C)C(=O)N[C@H](C(=O)N[C@@H](Cc1cnc[nH]1)C(=O)N[C@H](C(=O)NCC(=O)N[C@@H](CCCCN)C(=O)N[C@H](C(=O)N[C@H](C(=O)N[C@@H](Cc1cnc[nH]1)C(=O)N[C@@H](CCCN=C(N)N)C(=O)N[C@@H](CC(C)C)C(=O)N[C@H](C(=O)N[C@H](C(=O)NCC(N)=O)[C@@H](C)O)C(C)C)[C@@H](C)CC)[C@@H](C)O)C(C)C)C(C)C` [FFHHIFRGAVHVGKTIHRLVTG], the minimal inhibitory concentration (MIC) in the assay with Acinetobacter baumannii amounted to 1.23 µM (≈ 3.1 µg/mL); in assay [17], 8 µM (≈ 20.2 µg/mL); in [18], 6 µM (≈ 15.2 µg/mL); in [19] it was 9.88 µM (≈ 25 µg/mL); in assay [20], 10 µM (≈ 25.3 µg/mL); against Staphylococcus aureus it was 1.23 µM (≈ 3.1 µg/mL). Further, the MIC in assay [21] was 0.593 µM (≈ 1.5 µg/mL).

Regarding `CC(C)C[C@H](NC(=O)[C@H](CC(N)=O)NC(=O)[C@H](CCCN=C(N)N)NC(=O)[C@H](Cc1ccccc1)NC(=O)[C@@H](N)Cc1ccccc1)C(=O)N[C@@H](Cc1c[nH]c2ccccc12)C(=O)N[C@@H](CCCCN)C(=O)NCC(=O)N[C@@H](C)C(=O)N[C@@H](CCCCN)C(=O)N[C@@H](C)C(=O)N[C@@H](C)C(=O)N[C@@H](Cc1ccccc1)C(=O)N[C@@H](CCCN=C(N)N)C(=O)N[C@@H](C)C(=O)NCC(=O)N[C@@H](Cc1cnc[nH]1)C(=O)N[C@@H](C)C(=O)N[C@@H](C)C(=O)N[C@@H](Cc1c[nH]c2ccccc12)C(=O)N[C@@H](CCCN=C(N)N)C(=O)N[C@@H](C)C(=O)O` [FFRNLWKGAKAAFRAGHAAWRA], the MIC in the assay on Acinetobacter baumannii is 2.47 µM (≈ 6.25 µg/mL); in the assay with Candida albicans it was 2.47 µM (≈ 6.25 µg/mL); against Candida glabrata, at least 39.5 µM; in the assay on Candida tropicalis it was 2.47 µM (≈ 6.25 µg/mL); in assay [19], 19.7 µM (≈ 50 µg/mL); in assay [22], 1.23 µM (≈ 3.12 µg/mL). In addition, the MIC against Staphylococcus aureus was found to be 1.23 µM (≈ 3.12 µg/mL); in assay [21], 0.616 µM (≈ 1.56 µg/mL).

In the case of `CC(C)[C@H](NC(=O)[C@H](CCCCN)NC(=O)[C@H](C)NC(=O)[C@H](C)NC(=O)[C@H](CCCCN)NC(=O)[C@H](CCCCN)NC(=O)[C@H](Cc1ccccc1)NC(=O)[C@H](Cc1ccccc1)NC(=O)[C@H](CCCCN)NC(=O)[C@H](CCCCN)NC(=O)[C@H](Cc1c[nH]c2ccccc12)NC(=O)CN)C(=O)NCC(=O)N[C@@H](CCCCN)C(=O)O` [GWKKFFKKAAKVGK], the MIC in [1], in [2] and in assay [3] was at least 315 µM each time.
